# Literature values as cited in patent US20040096950A1, “Crystal structure of beta site APP cleaving enzyme (BACE) and methods of use thereof” (priority 2002, published 2004).
# Where a SMILES comes first, the peptide text is derived from it. [ ]: non-standard residue; d: D form. The star is where a group is joined. Sta = CC(C)C[C@H](N)[C@@H](O)CC(=O)O; Isovaleryl = CC(C)CC(=O)*
# Molecular target: BACE (Homo sapiens, UniProt P56817)
# Conditions: background statement, no concentration given
# Sequence of BACE (P56817 46-501): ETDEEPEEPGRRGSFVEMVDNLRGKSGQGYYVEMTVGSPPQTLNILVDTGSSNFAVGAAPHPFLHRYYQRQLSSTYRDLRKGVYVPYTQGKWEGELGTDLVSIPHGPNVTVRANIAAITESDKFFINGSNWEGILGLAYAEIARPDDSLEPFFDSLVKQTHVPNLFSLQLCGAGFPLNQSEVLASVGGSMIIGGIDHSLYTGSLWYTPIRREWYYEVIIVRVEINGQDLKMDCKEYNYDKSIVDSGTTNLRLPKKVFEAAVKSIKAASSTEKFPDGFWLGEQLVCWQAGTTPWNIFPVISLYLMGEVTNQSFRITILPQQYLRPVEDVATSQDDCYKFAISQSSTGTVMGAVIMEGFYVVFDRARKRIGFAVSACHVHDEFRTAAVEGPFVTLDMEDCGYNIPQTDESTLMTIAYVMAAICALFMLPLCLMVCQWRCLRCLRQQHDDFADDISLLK
smiles,measurement,value
CC(C)CC(=O)N[C@H](C(=O)N[C@H](C(=O)N[C@@H](CC(C)C)[C@@H](O)CC(=O)N[C@@H](C)C(=O)N[C@@H](CC(C)C)[C@@H](O)CC(=O)O)C(C)C)C(C)C [pepstatin] (Isovaleryl-VV[Sta]A[Sta]-OH),inhibition of BACE,inhibited weakly
